The values below come from patent US4758565A, “Substituted pyrimidoquinoxalines useful as anti-anaerobic agents” (G. D. Searle & Co., priority 1986, dated 1988).

One assay deals with Peptococcus magnus. Put plainly: MIC vs panel of anaerobes. In kind it is cell-based. Particulars: Finegoldia magna, procedures of Example 11 (mg/L).
Assay [1] has as its system Campylobacter fetus ss. jejuni ATCC 29428. Briefly: MIC vs panel of anaerobes. In kind it is cell-based. Particulars: ATCC29428, procedures of Example 11 (mg/L).
Assay [2] concerns Campylobacter fetus ss. jejuni NCTC 10842. Briefly: MIC vs panel of anaerobes. In kind it is cell-based. Particulars: NCTC10842, procedures of Example 11 (mg/L).
Another assay concerns B. fragilis WS-1. Briefly: Screening panel of Bacteroides fragilis, MIC and MBC, strain E. In kind it is cell-based. Particulars: WS1, 48 h; for MIC: 48 hours at 37° C., anaerobic, read-out: Minimum Inhibitory Concentration (MIC); for MBC: less than 5 colonies (99.9% reduction) after 48 hours, read-out: Minimum Bactericidal Concentration (MBC). The protocol:
(§1) The screening panel utilized in this example consisted of 5 strains of Bacteroides fragilis. All assays were carried out in 96-well microtitre plates. If an isolate was obtained from either a culture collection or clinical source, the isolate was immediately inoculated into Wilkins-Chalgren broth (Oxoid) and incubated at 37° C. in an anaerobic chamber in an atmosphere of 85% nitrogen, 10% carbon dioxide, and 5% hydrogen for 48 hours. At the end of this time, the viable count was about […] broth. A 1 ml aliquot of each culture was placed in an ampoule and quick frozen in acetone-dry ice mixture and stored in liquid nitrogen. […] A 2 mg sample of the test compound was dissolved in 0.2 ml of a suitable solvent such as dimethylsulfoxide, polyethylene glycol 200 or methanol. […] After addition of the test solution the final inoculum level was 10^5 cells/ml. The plates were incubated for 48 hours at 37° C. in the anaerobic chamber. The Minimum Inhibitory Concentration (MIC) was read visually. The MIC is defined as the lowest concentration at which there is no detectable growth. The Minimum Bactericidal Concentration (MBC) was determined by taking 50 μ l aliquot from each well and placing it in fresh medium. […] The strains of Bacteroides fragilis utilized in the above procedure are identified by letter in accordance with the following legend: |E B. fragilis WS-1* | *Obtained from St. Thomas's Hospital Medical School, London, United | Kingdom.

In assay [3] the test system is Fusobacterium necrophorum ATCC 11295. Put plainly: MIC vs panel of anaerobes. It is filed as cell-based. Particulars: ATCC11295, procedures of Example 11 (mg/L).
The subject of the next assay is B. fragilis NCTC 9344. Briefly: Screening panel of Bacteroides fragilis, MIC and MBC, strain C. It is filed as cell-based. Particulars: for MBC / MIC: Bacteroides fragilis; for MBC: NCTC9344, 48 h, read-out: Minimum Bactericidal Concentration (MBC); for MIC: NCTC9344, 48 hours at 37° C., anaerobic, read-out: Minimum Inhibitory Concentration (MIC). The protocol:
as §1, with “|C” for “|E”, “NCTC 9344” for “WS-1* | *Obtained from St. Thomas's Hospital Medical School, London, United | Kingdom.”

Assay [4] relates to Clostridium perfringens NCTC 523. Put plainly: microbe, parasite or virus in culture. In kind it is cell-based. Particulars: NCTC523.
For assay [5], the system named is Bacteroides melanogenicus NCTC 9336. Briefly: MIC vs panel of anaerobes. It is filed as cell-based. Particulars: NCTC9336, procedures of Example 11 (mg/L).
The test system of another assay is B. fragilis NCTC 9353. Briefly: Screening panel of Bacteroides fragilis, MIC and MBC, strain B. In kind it is cell-based. Particulars: for MIC / MBC: Bacteroides fragilis, NCTC9353, 48 h; for MIC: read-out: Minimum Inhibitory Concentration (MIC); for MBC: read-out: Minimum Bactericidal Concentration (MBC). The protocol:
as §1, with “|B” for “|E”, “NCTC 9353” for “WS-1* | *Obtained from St. Thomas's Hospital Medical School, London, United | Kingdom.”

The test system of assay [6] is Peptostreptococcus anaerobius. Briefly: MIC vs panel of anaerobes. It is filed as cell-based. Particulars: procedures of Example 11 (mg/L).
Assay [7] has as its system B. fragilis MZ-R ATCC 11295. Briefly: Screening panel of Bacteroides fragilis, MIC and MBC, strain D. It is filed as cell-based. Particulars: ATCC11295, 48 h; for MIC: 48 hours at 37° C., anaerobic, read-out: Minimum Inhibitory Concentration (MIC); for MBC: less than 5 colonies (99.9% reduction) after 48 hours, read-out: Minimum Bactericidal Concentration (MBC).
The subject of assay [8] is Propionebacterium acnes NCTC 7337. Briefly: MIC vs panel of anaerobes. It is filed as cell-based. Particulars: procedures of Example 11 (mg/L).
Assay [9] has as its system Clostridium difficile NCIB 10666. Briefly: MIC vs panel of anaerobes. It is filed as cell-based. Particulars: Clostridioides difficile, NCIB10666, procedures of Example 11 (mg/L).
Assay [10] deals with Fusobacterium necrophorum ATCC 25286. Put plainly: MIC vs panel of anaerobes. It is filed as cell-based. Particulars: ATCC25286, procedures of Example 11 (mg/L).
A further assay has as its system B. fragilis NCTC 10581. Briefly: Screening panel of Bacteroides fragilis, MIC and MBC, strain A. In kind it is cell-based. Particulars: for MIC: NCTC10581, 48 hours at 37° C., anaerobic, read-out: Minimum Inhibitory Concentration (MIC); for MBC: NCTC10581, less than 5 colonies (99.9% reduction) after 48 hours, read-out: Minimum Bactericidal Concentration (MBC). As for the experimental part:
as §1, with “|A” for “|E”, “NCTC 10581” for “WS-1* | *Obtained from St. Thomas's Hospital Medical School, London, United | Kingdom.”

In the next assay the test system is B. fragilis 23745. Briefly: In vivo anti-anaerobe activity, mouse hepatic necrosis. Particulars: 40 mg/kg (p.o).
The mark [11] stands for this setting: less than 5 colonies (99.9% reduction) after 48 hours.

The structures appear in SMILES notation. In brackets after ≈: the same amount, converted by molar mass. Some results are limits rather than exact numbers.

Turning to `CC1(C)CN=C2C(c3ccccc3)=[N+]([O-])c3ccc(F)cc3N2C1` [Example 2, 2,3-Dihydro-2,2-dimethyl-9-fluoro-5-phenyl-1H-pyrimido [1,2-a]quinoxaline 6-oxide], the MIC was below 0.8 µg/mL against Peptococcus magnus; 25 µg/mL (≈ 77.3 µM) in assay [1]; 50 µg/mL (≈ 155 µM) in assay [2]; below 0.8 µg/mL in the assay on B. fragilis WS-1; 3.1 µg/mL (≈ 9.59 µM) in [3]; below 0.8 µg/mL with B. fragilis NCTC 9344. Also, the MIC was 3.1 µg/mL (≈ 9.59 µM) in [4]; 50 µg/mL (≈ 155 µM) in [5]; below 0.8 µg/mL in the assay with B. fragilis NCTC 9353 (48 hours at 37° C., anaerobic); 1.5 µg/mL (≈ 4.64 µM) in assay [6]; below 0.8 µg/mL in assay [7]; 50 µg/mL (≈ 155 µM) in [8]. The MIC in assay [9] was 3.1 µg/mL (≈ 9.59 µM); in assay [10], below 0.8 µg/mL. The MBC with B. fragilis WS-1 is below 0.8 µg/mL; in the assay on B. fragilis NCTC 9344 (setting [11]), 1.5 µg/mL (≈ 4.64 µM); with B. fragilis NCTC 9353 (setting [11]) it was below 0.8 µg/mL; in [7] it was below 0.8 µg/mL.

Consider `CC1(C)CN=C2C(c3ccccc3)=[N+]([O-])c3cccc(F)c3N2C1` [Example 5, 2,3-Dihydro-2,2-dimethyl-10-fluoeo-5-phenyl-1H-pyrimido [1,2-a]quinoxaline 6-oxide], for which the MIC with B. fragilis WS-1 is below 0.8 µg/mL; in the assay on B. fragilis NCTC 10581, below 0.8 µg/mL; in the assay with B. fragilis NCTC 9344, below 0.8 µg/mL; in the assay on B. fragilis NCTC 9353 (48 hours at 37° C., anaerobic) it was below 0.8 µg/mL; in [7], below 0.8 µg/mL. Further, the MBC is below 0.8 µg/mL in the assay on B. fragilis WS-1; 1.5 µg/mL (≈ 4.64 µM) with B. fragilis NCTC 10581; below 0.8 µg/mL in the assay on B. fragilis NCTC 9344 (setting [11]); below 0.8 µg/mL with B. fragilis NCTC 9353 (setting [11]); below 0.8 µg/mL in assay [7].

As for `CCC1(C)CN=C2C(c3ccc(C)cc3)=[N+]([O-])c3cc(C(F)(F)F)ccc3N2C1` (stereo not shown) [Example 6, 2,3-Dihydro-2-ethyl-2-methyl-5-(4-methylphenyl)-8-trifluoromethyl-1H-pyrimdo [1,2-a]quinoxaline 6-oxide], the MIC in the assay on B. fragilis WS-1 came out at 3.1 µg/mL (≈ 7.72 µM); in the assay with B. fragilis NCTC 10581 it was 6.2 µg/mL (≈ 15.4 µM); in the assay with B. fragilis NCTC 9344, 3.1 µg/mL (≈ 7.72 µM); in the assay with B. fragilis NCTC 9353 (48 hours at 37° C., anaerobic) it was 6.2 µg/mL (≈ 15.4 µM); in assay [7], 1.5 µg/mL (≈ 3.74 µM). Also, the MBC was determined as 3.1 µg/mL (≈ 7.72 µM) in the assay on B. fragilis WS-1; 6.2 µg/mL (≈ 15.4 µM) with B. fragilis NCTC 10581; 3.1 µg/mL (≈ 7.72 µM) with B. fragilis NCTC 9344 (setting [11]); 6.2 µg/mL (≈ 15.4 µM) in the assay with B. fragilis NCTC 9353 (setting [11]); 3.1 µg/mL (≈ 7.72 µM) in assay [7].

Turning to `Cc1ncc([N+](=O)[O-])n1CCO` [Metronidazole, reference compound], the “reduction in B. fragilis” value in the assay on B. fragilis 23745 was 3-3.5 log10. Also, the MIC was below 0.8 µg/mL in the assay with B. fragilis NCTC 10581; below 0.8 µg/mL in the assay on B. fragilis NCTC 9344; below 0.8 µg/mL in the assay on B. fragilis NCTC 9353 (48 hours at 37° C., anaerobic). The MBC is below 0.8 µg/mL in the assay with B. fragilis NCTC 10581, 1.5 µg/mL (≈ 8.76 µM) in the assay with B. fragilis NCTC 9344 (setting [11]) and below 0.8 µg/mL in the assay with B. fragilis NCTC 9353 (setting [11]). Also, the “Minimum Bactericidal Concentration (MBC)” value in the assay with B. fragilis NCTC 9344 (setting [11]) was below 0.8 µg/mL; with B. fragilis NCTC 9353 (setting [11]) it was 1.5 µg/mL. In the assay with B. fragilis NCTC 9353 (48 hours at 37° C., anaerobic), the “Minimum Inhibitory Concentration (MIC)” value is 1.5 µg/mL.

As for `CCC1(C)CN=C2C(c3ccccc3)=[N+]([O-])c3cc(C(F)(F)F)ccc3N2C1` (stereo not shown) [Example 4, 2,3-Dihydro-2-ethyl-2-methyl-5-phenyl-8-trifluoromethyl-1H-pyrimido [1,2-a]quinoxaline 6-oxide], the MIC was below 0.8 µg/mL in the assay on B. fragilis WS-1; below 0.8 µg/mL in the assay with B. fragilis NCTC 10581; below 0.8 µg/mL in the assay on B. fragilis NCTC 9344; below 0.8 µg/mL in the assay on B. fragilis NCTC 9353 (48 hours at 37° C., anaerobic); below 0.8 µg/mL in [7]. Besides, the MBC is below 0.8 µg/mL with B. fragilis WS-1; 1.5 µg/mL (≈ 3.87 µM) in the assay with B. fragilis NCTC 10581; below 0.8 µg/mL in the assay with B. fragilis NCTC 9344 (setting [11]); below 0.8 µg/mL in the assay with B. fragilis NCTC 9353 (setting [11]); below 0.8 µg/mL in assay [7].

Take `CC1(C)CN=C2C(c3ccccc3)=[N+]([O-])c3cc(C(F)(F)F)ccc3N2C1` [Example 1, 2,3-Dihydro-2,2-dimethyl-5-phenyl-8-trifluoromethyl-1H-pyrimido[1,2-a]quinoxaline 6-oxide]: the MIC was 100 µg/mL (≈ 268 µM) in assay [1]; above 100 µg/mL in assay [2]; 1.5 µg/mL (≈ 4.02 µM) in the assay with B. fragilis WS-1; 1.5 µg/mL (≈ 4.02 µM) in [3]; 3.1 µg/mL (≈ 8.3 µM) in the assay with B. fragilis NCTC 10581; 1.5 µg/mL (≈ 4.02 µM) in the assay with B. fragilis NCTC 9344. Further, the MIC in assay [4] was 1.5 µg/mL (≈ 4.02 µM); in assay [5] it was above 100 µg/mL; with B. fragilis NCTC 9353 (48 hours at 37° C., anaerobic), 1.5 µg/mL (≈ 4.02 µM); in assay [6] it was 100 µg/mL (≈ 268 µM); in assay [7], 0.8 µg/mL (≈ 2.14 µM); in assay [8] it was 100 µg/mL (≈ 268 µM). For the same compound, the MIC in [9] is below 0.8 µg/mL. Besides, the MBC with B. fragilis WS-1 is 1.5 µg/mL (≈ 4.02 µM); in the assay with B. fragilis NCTC 10581, 3.1 µg/mL (≈ 8.3 µM); in the assay with B. fragilis NCTC 9344 (setting [11]), 3.1 µg/mL (≈ 8.3 µM); in the assay with B. fragilis NCTC 9353 (setting [11]), 1.5 µg/mL (≈ 4.02 µM); in assay [7] it was 0.8 µg/mL (≈ 2.14 µM).
